Measurements as given in article PMC8041284, “Tunable Methacrylamides for Covalent Ligand Directed Release Chemistry” (Journal of the American Chemical Society, 2021).
Where a SMILES comes first, the peptide text is derived from it. [ ]: non-standard residue; d: D form.

Molecular target: BTK (Homo sapiens, UniProt Q06187)
Test: biochemical
Settings: read-out: BTK inhibition (%)

Sequence of BTK (Q06187 402-655 limits assumed): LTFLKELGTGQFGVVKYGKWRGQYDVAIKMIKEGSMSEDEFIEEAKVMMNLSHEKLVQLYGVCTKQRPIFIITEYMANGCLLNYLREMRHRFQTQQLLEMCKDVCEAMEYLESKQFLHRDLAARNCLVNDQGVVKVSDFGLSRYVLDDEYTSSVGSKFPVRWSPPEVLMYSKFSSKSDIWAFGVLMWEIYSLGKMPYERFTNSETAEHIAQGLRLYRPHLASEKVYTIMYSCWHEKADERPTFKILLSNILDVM

Point of comparison: `O=C(O)[C@H]1O[C@@H](Oc2cc3oc(-c4ccc(O)cc4)cc(=O)c3c(O)c2O)[C@H](O)[C@@H](O)[C@@H]1O` [PCM-0215170], inhibition at 10 µM 0%. Against it:
- CC(C)(C)[C@]1(O)C[C@@H]2OC(=O)C[C@@]23C(=O)O[C@@H]2OC(=O)[C@H](O)[C@]213 [PCM-0094827] — lower, -6.2%
- Cc1ccc(NC(=S)NNc2c([N+](=O)[O-])cc(C(F)(F)F)cc2[N+](=O)[O-])cc1Cl [PCM-0215660] — higher, 90.3%

Same assay, conditions: read-out: BTK inhibition (%), 0.75 uM BTK, […] probe 3l, 15 min preincubation

Point of comparison: `CC(C)(C#N)c1ccc(N2C(=O)OCc3cnc4ccc(-c5cnc6ccccc6c5)cc4c32)cc1` [PCM-0215242], inhibition at 10 µM -4.8%. Against it:
- C=CC(=O)N1CCN(CCCn2c(=O)c(-c3c(Cl)c(OC)cc(OC)c3Cl)cc3cnc(NC)nc32)CC1 [PCM-0215863] — higher, 6.2%
- C=CCc1ccc(O)c(-c2cc(CC=C)ccc2O)c1 [PCM-0094865] — higher, 16.3%
- CCC1=C[C@@H]2CN3CCc4c([nH]c5ccccc45)[C@@](C(=O)OC)(C2)[C@@H]13 [PCM-0085818] — higher, 8.6%
- CO/N=C(\C(=O)N[C@@H]1C(=O)N2C(C(=O)[O-])=C(C[n+]3cccc4c3CCC4)CS[C@H]12)c1csc(N)n1 [PCM-0214899] — higher, -4.7%
- CCCOc1ccc2c(c1)CC[C@@H]1[C@@H]2CC[C@]2(C)[C@@H](OC)CC[C@@H]12 [PCM-0214906] — lower, -24.1%
- CC1=C(CSC(=S)N2CCCCC2)C(=O)c2ccccc2C1=O [PCM-0215883] — higher, 21.6%
- N[C@@H](CCC(=O)O)C(=O)O [PCM-0215690] — higher, 10.2%
- C[C@@H]1C(=O)O[C@H](C)[C@H]1C[C@@H](O)[C@](C)(O)[C@H]1CC[C@@]2(O)C3=CC(=O)[C@@H]4C[C@@H](O)[C@@H](O)C[C@]4(C)[C@H]3CC[C@]12C [PCM-0216317] — lower, -5.4%
- O=C(O)CC(O)(CC(=O)OCc1ccc(O[C@@H]2O[C@H](CO)[C@@H](O)[C@H](O)[C@H]2O)cc1)C(=O)OCc1ccc(O[C@@H]2O[C@H](CO)[C@@H](O)[C@H](O)[C@H]2O)cc1 (stereo partly shown) [PCM-0216319] — lower, -28.6%
- Cc1cc(C)c(Nc2ccnc(Nc3ccc(C#N)cc3)n2)c(C)c1 [PCM-0095398] — higher, 7%
- C[C@H]1CC[C@@]2(O)C(C)(C)[C@@H]3CC[C@@]2(C)[C@H]1C3 [PCM-0215010] — higher, 2.8%
- C=CC[C@]1(O)CC[C@H]2[C@@H]3CCC4=CC(=O)CCC4=C3C=C[C@@]21C [PCM-0095614] — higher, -4.7%
- C[C@@H]1CN(c2c(F)c(N)c3c(=O)c(C(=O)O)cn(C4CC4)c3c2F)C[C@H](C)N1 [PCM-0086271] — higher, 2.3%
- Cc1ncc([N+](=O)[O-])n1CC(O)CCl (stereo not shown) [PCM-0085772] — higher, -3.9%
- O=C1c2c(O)cc(O)cc2O[C@H](c2ccc(O)c(O)c2)[C@H]1O [PCM-0087882] — higher, 11%
- C#CCN[C@@H]1CCc2ccccc21 [PCM-0090264] — lower, -9.3%
- Cc1cc(O)c(-c2ccc([C@@H](C)CN)cc2)c2c1[nH]c(=O)c1sccc12 [PCM-0215772] — higher, 70.3%
- COc1cc(O)c2c(c1)oc(=O)c1c3cc(O)c(O)cc3oc21 [PCM-0216602] — higher, 47.9%
- CCCCCCCCC/C(=C\C1=C(C)C(=O)C(OC)=C(OC)C1=O)C(=O)O [PCM-0215484] — lower, -13.9%
- CCCCC(CC)COC(=O)C(C#N)=C(c1ccccc1)c1ccccc1 (stereo not shown) [PCM-0215898] — higher, 0%
- COC1[C@@H](O)[C@@H](O)C(O)[C@H](O)[C@H]1O (stereo partly shown) [PCM-0215037] — lower, -11%
- CC1(C)OC(=O)C=C[C@]2(C)[C@H]3CC[C@@]4(C)[C@H](c5ccoc5)OC(=O)[C@H]5O[C@]54[C@]3(C)C(=O)C[C@@H]12 [PCM-0214973] — higher, 11.7%
- CC(C)C[C@@H]1NC(=O)[C@@H](C(C)C)NC(=O)[C@@H]2CCCN2C(=O)[C@@H](CC(=O)O)NC(=O)[C@@H](Cc2c[nH]c3ccccc23)NC1=O [PCM-0215512] (cyclo(L[dW][dD]P[dV])) — lower, -5.4%
- Cn1cc(-c2ccc3nnc(C(F)(F)c4ccc5ncccc5c4)n3n2)cn1 [PCM-0094910] — higher, -1.4%
- CC(C)c1onc(-c2c(Cl)cccc2Cl)c1COc1ccc(/C=C/c2cccc(C(=O)O)c2)c(Cl)c1 [PCM-0095360] — higher, 52.4%
- CCC[C@H](NC(=O)/C(C#N)=C/c1cccc(Br)n1)c1ccccc1 [PCM-0095282] — higher, 24.8%
- C[N+]1(C)CCC(=C(c2ccccc2)c2ccccc2)CC1 [PCM-0085922] — higher, 13.2%
- O=C1c2c(O)ccc(O)c2C(=O)c2c(NCCNCCO)ccc(NCCNCCO)c21 [PCM-0065547] — higher, 51%
- COc1ccc(C[C@@H](C)NC[C@H](O)c2ccc(O)c(NC=O)c2)cc1 [PCM-0086341] — higher, 7%
- O=C(NCCCNc1nc(Nc2cccc(CN3CCOCC3)c2)ncc1C1CC1)C1CCC1 [PCM-0215642] — higher, 21.6%
- CCOC(=O)CCC(=O)O[C@H]1[C@H](O[C@@H]2[C@@H](C)[C@H](O[C@H]3C[C@@](C)(OC)[C@@H](O)[C@H](C)O3)[C@@H](C)C(=O)O[C@H](CC)[C@@](C)(O)[C@H](O)[C@@H](C)C(=O)[C@H](C)C[C@@]2(C)O)O[C@H](C)C[C@@H]1N(C)C [PCM-0214733] — lower, -14.8%
- O=C(NC[C@H](O)CN1CCc2ccccc2C1)c1cc(NC2COC2)ncn1 [PCM-0215447] — higher, 1.5%
- CC[C@@H]1/C=C(\C)C[C@H](C)C[C@H](OC)[C@H]2O[C@@](O)(C(=O)C(=O)N3CCCC[C@H]3C(=O)O[C@H](/C(C)=C/[C@@H]3CC[C@H](Cl)[C@H](OC)C3)[C@H](C)[C@@H](O)CC1=O)[C@H](C)C[C@@H]2OC [PCM-0214690] — lower, -13.8%
- O=C(c1cccc(Cl)c1F)N1CCN(Cc2cccc(Nc3nccs3)n2)CC1 [PCM-0215281] — higher, 68.3%
- CC1(C)O[C@@H]2C[C@H]3[C@@H]4CCC5=CC(=O)C=C[C@]5(C)[C@H]4[C@@H](O)C[C@]3(C)[C@]2(C(=O)CO)O1 [PCM-0214648] — higher, 4.8%
- CC(C)(Cc1ccc2ccccc2c1)NC[C@@H](O)COc1cccc(Cl)c1C#N [PCM-0095749] — lower, -11.7%
- COC(=O)[C@@]1(C)CC[C@]2(C(=O)O)CC[C@]3(C)C(=CC[C@@H]4[C@@]5(C)C[C@H](O)[C@H](O[C@@H]6OC[C@@H](O[C@@H]7O[C@H](CO)[C@@H](O)[C@H](O)[C@H]7O)[C@H](O)[C@H]6O)[C@@](C)(CO)[C@@H]5CC[C@]43C)[C@@H]2C1 [PCM-0216472] — higher, 2.3%
- Cc1cccc(-c2[nH]c(C(C)(C)C)nc2-c2ccc3c(c2)OCO3)n1 [PCM-0095234] — higher, 9.3%
- C=CC(=O)N1CCN(C(=O)CNc2cc(I)c(Cl)cc2O)CC1 [PCM-0215367] — higher, 84.9%
- O=C1NC(=O)/C(=C/c2ccc3c(c2)OC(F)(F)O3)S1 [PCM-0095357] — higher, 9.7%
- CC(OC(=O)OC1CCCCC1)OC(=O)C1=C(CSc2nnnn2CCN(C)C)CS[C@@H]2[C@H](NC(=O)Cc3csc(N)n3)C(=O)N12 (stereo partly shown) [PCM-0216590] — higher, 4.6%
- C[n+]1c2ccccc2nc2ccccc21 [PCM-0216061] — higher, 64.9%
- Oc1ccc2c(c1)OCO2 [PCM-0214880] — higher, -3.9%
- C=C[C@@](C)(/C=C/c1ccc(O)cc1)CCC=C(C)C [PCM-0094651] — higher, 6.9%
- CC(C)=CCC[C@](C)(O[C@@H]1O[C@H](CO[C@@H]2OC[C@@H](O)[C@H](O)[C@H]2O)[C@@H](O)[C@H](O)[C@H]1O)[C@H]1CC[C@]2(C)[C@@H]1[C@H](O)C[C@@H]1[C@@]3(C)CC[C@H](O[C@@H]4O[C@H](CO)[C@@H](O)[C@H](O)[C@H]4O)C(C)(C)[C@@H]3CC[C@]12C [PCM-0214676] — higher, 35.8%
- O=c1c(-c2ccc(O)cc2)coc2cc(O[C@@H]3O[C@H](CO)[C@@H](O)[C@H](O)[C@H]3O)cc(O)c12 [PCM-0214858] — lower, -9.3%
- CCCC(=O)Nc1ncnc2c1ncn2[C@@H]1O[C@@H]2COP(=O)(O)O[C@H]2[C@H]1OC(=O)CCC [PCM-0215503] — higher, 4.6%
- C=C[C@](C)(O)CC[C@@H]1[C@@]2(C)CCCC(C)(C)[C@@H]2CC[C@@]1(C)O [PCM-0094807] — lower, -25.7%
- N#Cc1c(N)nc(NC2CC2)nc1N [PCM-0216125] — higher, 14%
- CCN(CC)CCOCCOC(=O)C1(c2ccccc2)CCCC1 [PCM-0065027] — higher, 4.7%
- O=C(Cc1ccccc1)Nc1nnc(CCSCCc2nnc(NC(=O)Cc3ccccc3)s2)s1 [PCM-0215483] — higher, 5.4%
- CC[C@]1(O)C[C@H]2CN(CCc3c([nH]c4ccccc34)[C@@](C(=O)OC)(c3cc4c(cc3OC)N(C=O)[C@H]3[C@@](O)(C(=O)OC)[C@H](OC(C)=O)[C@]5(CC)C=CCN6CC[C@]43[C@@H]65)C2)C1 [PCM-0214794] — higher, 9%
- O=C(O)CCc1ccc(O)cc1O [PCM-0214987] — lower, -10.9%
- O=C(O)CCNc1cc(N2CCc3ccccc3CC2)nc(-c2ccccn2)n1 [PCM-0215478] — higher, -3.1%
- OC[C@H]1O[C@H](Oc2ccc(O)cc2)[C@H](O)[C@@H](O)[C@@H]1O [PCM-0215968] — higher, 4.6%
- Cc1ccc(C(=O)N(CCCN)[C@@H](c2oc3cc(Cl)ccc3c(=O)c2Cc2ccccc2)C(C)C)cc1 [PCM-0095226] — higher, -2.3%
- O=C1C[C@@H](c2ccc(O)cc2)Oc2cc(O)ccc21 [PCM-0214979] — lower, -9.3%
- C[C@@H]1OC(O)[C@@H](O)[C@H](O)[C@@H]1O (stereo partly shown) [PCM-0216337] — lower, -23.2%
- COCC1(CO)C(=O)C2CCN1CC2 (stereo not shown) [PCM-0215751] — higher, 0%
- CCCC[C@@H](C=O)NC(=O)[C@H](CC(C)C)NC(=O)OCc1ccccc1 [PCM-0215437] — higher, -4.6%
- COC(=O)CC[C@@H](C)[C@H]1CC[C@H]2[C@@H]3[C@H](O)C[C@@H]4C[C@H](O)CC[C@]4(C)[C@H]3C[C@H](O)[C@]12C [PCM-0215088] — higher, -4.7%
- C[C@H](N=C(NC#N)Nc1cccc2ncccc12)c1ccccc1 [PCM-0216092] — lower, -13.1%
- C[C@@H]1CC[C@@]2(OC1)O[C@H]1C[C@H]3[C@@H]4CC=C5C[C@@H](O[C@@H]6O[C@H](CO)[C@@H](O)[C@H](O)[C@H]6O[C@@H]6O[C@@H](C)[C@H](O)[C@@H](O)[C@H]6O)CC[C@]5(C)[C@H]4CC[C@]3(C)[C@@]1(O)[C@@H]2C [PCM-0216535] — higher, 5.4%
